Source: patent US4638070A, “Heterocyclic amino-alcohol derivatives” (Continental Pharma, priority 1980, dated 1987)

Columns and labels:
femoral artery = test: Vasodilator activity, femoral artery (technique of perfused paw); assay type: in vivo; design: key: O: no action; +: slight activity; ++: effect equal to half the effect of papaverine; +++: effect equal to that of papaverine; ++++: effect higher than that of papaverine; conditions: intra-arterial, 30 mg/kg, anaesthetized dog, vs papaverine at same dose
Experimental: (3) The vasodilator activity was measured at the level of femoral artery on anaesthetized dog (technique of perfused paw). The tested substances were given intra-arterially at the rate of 30 mg/kg. Results are expressed with respect to papaverine tested at the same dose.
++: effect equal to half the effect of papaverine.
+++: effect equal to that of papaverine.
++++: effect higher than that of papaverine.

[1] = test system: guinea-pig ileum (acetylcholine contractions); test: Antispasmodic activity in vitro, contractions caused by acetylcholine; conditions: added 15 minutes before spasm-producing agent
Experimental: (§1) (4) The antispasmodic activity was measured in vitro, on guinea-pig ileum, the contractions of which were caused by histammne (Hist.), acetylcholine (Achol) or barium chloride (BaCl2). The tested products were added to perfusion bath 15 minutes before the spasm-producing agents.
(§2) The dose is given in micograms (μg) per ml of bath causing complete spasm inhibition.

[2] = test system: guinea-pig ileum (barium chloride contractions); test: Antispasmodic activity in vitro, contractions caused by barium chloride; conditions: added 15 minutes before spasm-producing agent
Experimental: as §1, §2

[3] = test system: guinea-pig ileum (histamine contractions); test: Antispasmodic activity in vitro, contractions caused by histamine; conditions: added 15 minutes before spasm-producing agent
Experimental: as §1, §2

[4] = test system: unanaesthetized, hypertension-suffering rat; test: Antihypertensive activity (systolic arterial pressure), oral; assay type: in vivo; conditions: 60 mg/kg, hypertensive rat, 3 hours
Outline: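 Conscious hypertensive rats given compound orally at 60 mg/kg; systolic arterial pressure measured every 30 min for 2 h pre-dose and 3 h post-dose. Scored O (no fall), + (<10 mm Hg), ++ (10–20 mm Hg), +++ (>20 mm Hg).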

[5] = Acute toxicity, oral, LD50 (Litchfield and Wilcoxon); conditions: mouse, in vivo, fasted male mice, confidence limits p=95% in brackets
Experimental: (1) The acute toxicity was determined on fasted male mice. The tested substances were orally administered and LD50 values (lethal dose for 50% of animals) were calculated according to the method of Litchfield and Wilcoxon (J. Pharmacol. exp. Ther. 96, 94-113, 1949). These LD50 values are given in mg/kg and also, when possible, with their confidence limits for p=95%.

For “1-(5-indanyl)-2-(4-phenylbutylamino)-1-propanol [No 163]”, the “VASODILATOR ACTIVITY” value (femoral artery) was “++++”, the “ANTISPASMODIC ACTIVITY ACHOL (dose causing complete spasm inhibition)” value [1] was 0.8 μg per ml and the “ANTISPASMODIC ACTIVITY BaCl2 (dose causing complete spasm inhibition)” value [2] was 0.8 μg per ml. For the same molecule, the “ANTISPASMODIC ACTIVITY HIST. (dose causing complete spasm inhibition)” value [3] was 0.33 μg per ml and the “ANTIHYPERTENSIVE ACTIVITY” value [4] was “+++ (reduction higher than 20 mm Hg)”.
With `CCCCCCCCNC(C)C(O)c1ccc2c(c1)CCCS2` (stereo not drawn) [No 1, 1-(6-Thiochromanyl)-2-n-octylamino-1-propanol] the “VASODILATOR ACTIVITY” value (femoral artery) was “++++”, the “ANTISPASMODIC ACTIVITY ACHOL (dose causing complete spasm inhibition)” value [1] was 3.3 μg per ml and the LD50 [5] was over 4000 mg/kg. The “ANTISPASMODIC ACTIVITY BaCl2 (dose causing complete spasm inhibition)” value [2] was 1.7 μg per ml, the “ANTISPASMODIC ACTIVITY HIST. (dose causing complete spasm inhibition)” value [3] was 3.3 μg per ml and the “ANTIHYPERTENSIVE ACTIVITY” value [4] was “++ (reduction of 10 to 20 mm Hg)”.
With `CC(NCCCCc1ccccc1)C(O)c1ccc2c(c1)CCCS2` (stereo not drawn) [No 2] the “VASODILATOR ACTIVITY” value (femoral artery) was “++++”, the “ANTISPASMODIC ACTIVITY ACHOL (dose causing complete spasm inhibition)” value [1] was 8.3 μg per ml and the LD50 [5] was over 4000 mg/kg. For the same molecule, the “ANTISPASMODIC ACTIVITY BaCl2 (dose causing complete spasm inhibition)” value [2] was 16.7 μg per ml, the “ANTISPASMODIC ACTIVITY HIST. (dose causing complete spasm inhibition)” value [3] was 1.7 μg per ml and the “ANTIHYPERTENSIVE ACTIVITY” value [4] was “+++ (reduction higher than 20 mm Hg)”.
For `CCCCCCCCNC(C)C(O)c1ccc2c(c1)CCS2` (stereo not drawn) [No 3, 1-(2,3-dihydro-5-benzo[b]thienyl)-2-n-octylamino-1-propanol], the “VASODILATOR ACTIVITY” value (femoral artery) was “+++”, the “ANTISPASMODIC ACTIVITY ACHOL (dose causing complete spasm inhibition)” value [1] was 16.7 μg per ml and the LD50 [5] was 4450 mg/kg. The “ANTISPASMODIC ACTIVITY BaCl2 (dose causing complete spasm inhibition)” value [2] was 8.3 μg per ml, the “ANTISPASMODIC ACTIVITY HIST. (dose causing complete spasm inhibition)” value [3] was 8.3 μg per ml and the “ANTIHYPERTENSIVE ACTIVITY” value [4] was “+++ (reduction higher than 20 mm Hg)”.
With `Cc1ccccc1N1CCN(C(C)C(O)c2ccc3c(c2)CCC(C)S3)CC1` (stereo not drawn) [No 10] the “VASODILATOR ACTIVITY” value (femoral artery) was “++”, the “ANTISPASMODIC ACTIVITY ACHOL (dose causing complete spasm inhibition)” value [1] was 16.7 μg per ml and the LD50 [5] was over 4000 mg/kg. The “ANTISPASMODIC ACTIVITY BaCl2 (dose causing complete spasm inhibition)” value [2] was 8.3 μg per ml, the “ANTISPASMODIC ACTIVITY HIST. (dose causing complete spasm inhibition)” value [3] was 0.33 μg per ml and the “ANTIHYPERTENSIVE ACTIVITY” value [4] was “+++ (reduction higher than 20 mm Hg)”.
With `Cc1ccccc1N1CCN(C(C)C(O)c2ccc3c(c2)CCCS3)CC1` (stereo not drawn) [No 15] the “VASODILATOR ACTIVITY” value (femoral artery) was “+++”, the “ANTISPASMODIC ACTIVITY ACHOL (dose causing complete spasm inhibition)” value [1] was 3.3 μg per ml and the “ANTISPASMODIC ACTIVITY BaCl2 (dose causing complete spasm inhibition)” value [2] was over 16.7 μg per ml. For the same molecule, the “ANTISPASMODIC ACTIVITY HIST. (dose causing complete spasm inhibition)” value [3] was 0.8 μg per ml and the “ANTIHYPERTENSIVE ACTIVITY” value [4] was “+++ (reduction higher than 20 mm Hg)”.
For `CC(NCCC(c1ccccc1)c1ccccc1)C(O)c1ccc2c(c1)CCCS2` (stereo not drawn) [No 16], the “VASODILATOR ACTIVITY” value (femoral artery) was “+++”, the “ANTISPASMODIC ACTIVITY ACHOL (dose causing complete spasm inhibition)” value [1] was 0.8 μg per ml and the LD50 [5] was over 4000 mg/kg. The “ANTISPASMODIC ACTIVITY BaCl2 (dose causing complete spasm inhibition)” value [2] was 0.33 μg per ml, the “ANTISPASMODIC ACTIVITY HIST. (dose causing complete spasm inhibition)” value [3] was 0.3 μg per ml and the “ANTIHYPERTENSIVE ACTIVITY” value [4] was “++ (reduction of 10 to 20 mm Hg)”.
In the case of `CC(NCCCc1ccccc1)C(O)c1ccc2c(c1)CCCS2` (stereo not drawn) [No 17], the “VASODILATOR ACTIVITY” value (femoral artery) is reported as “+++”, the “ANTISPASMODIC ACTIVITY ACHOL (dose causing complete spasm inhibition)” value [1] is reported as 1.7 μg per ml and the LD50 [5] is reported as over 4000 mg/kg. The “ANTISPASMODIC ACTIVITY BaCl2 (dose causing complete spasm inhibition)” value [2] was 1.7 μg per ml, the “ANTISPASMODIC ACTIVITY HIST. (dose causing complete spasm inhibition)” value [3] was 0.8 μg per ml and the “ANTIHYPERTENSIVE ACTIVITY” value [4] was “+++ (reduction higher than 20 mm Hg)”.
In the case of `CC1Cc2cc(C(O)C(C)NCCCCc3ccccc3)ccc2S1` (stereo not drawn) [No 19], the “VASODILATOR ACTIVITY” value (femoral artery) is reported as “+++”, the “ANTISPASMODIC ACTIVITY ACHOL (dose causing complete spasm inhibition)” value [1] is reported as 1.7 μg per ml and the LD50 [5] is reported as 1550 mg/kg. The “ANTISPASMODIC ACTIVITY BaCl2 (dose causing complete spasm inhibition)” value [2] was 0.8 μg per ml, the “ANTISPASMODIC ACTIVITY HIST. (dose causing complete spasm inhibition)” value [3] was 0.8 μg per ml and the “ANTIHYPERTENSIVE ACTIVITY” value [4] was “+++ (reduction higher than 20 mm Hg)”.
With `CC(NCCOc1ccccc1)C(O)c1ccc2c(c1)CCCS2` (stereo not drawn) [No 20] the “VASODILATOR ACTIVITY” value (femoral artery) was “+++”, the “ANTISPASMODIC ACTIVITY ACHOL (dose causing complete spasm inhibition)” value [1] was 3.3 μg per ml and the LD50 [5] was over 4000 mg/kg. The “ANTISPASMODIC ACTIVITY BaCl2 (dose causing complete spasm inhibition)” value [2] was 8.3 μg per ml, the “ANTISPASMODIC ACTIVITY HIST. (dose causing complete spasm inhibition)” value [3] was 8.3 μg per ml and the “ANTIHYPERTENSIVE ACTIVITY” value [4] was “+++ (reduction higher than 20 mm Hg)”.
For `CC(NCCCCc1ccc(Cl)cc1)C(O)c1ccc2c(c1)CCCS2` (stereo not drawn) [No 23], the “VASODILATOR ACTIVITY” value (femoral artery) was “++++”, the “ANTISPASMODIC ACTIVITY ACHOL (dose causing complete spasm inhibition)” value [1] was 1.7 μg per ml and the LD50 [5] was about 2100 mg/kg. The “ANTISPASMODIC ACTIVITY BaCl2 (dose causing complete spasm inhibition)” value [2] was 0.8 μg per ml, the “ANTISPASMODIC ACTIVITY HIST. (dose causing complete spasm inhibition)” value [3] was 0.8 μg per ml and the “ANTIHYPERTENSIVE ACTIVITY” value [4] was “+++ (reduction higher than 20 mm Hg)”.
With `CC(NCCCCOc1ccccc1)C(O)c1ccc2c(c1)CCCS2` (stereo not drawn) [No 24] the “VASODILATOR ACTIVITY” value (femoral artery) was “+++”, the “ANTISPASMODIC ACTIVITY ACHOL (dose causing complete spasm inhibition)” value [1] was 1.7 μg per ml and the LD50 [5] was over 4000 mg/kg. For the same molecule, the “ANTISPASMODIC ACTIVITY BaCl2 (dose causing complete spasm inhibition)” value [2] was 1.7 μg per ml and the “ANTISPASMODIC ACTIVITY HIST. (dose causing complete spasm inhibition)” value [3] was 0.33 μg per ml.
With `CC(C(O)c1ccc2c(c1)CCCS2)N1CCC(Cc2ccccc2)CC1` (stereo not drawn) [No 26] the “ANTISPASMODIC ACTIVITY ACHOL (dose causing complete spasm inhibition)” value [1] was 1.7 μg per ml, the “ANTISPASMODIC ACTIVITY BaCl2 (dose causing complete spasm inhibition)” value [2] was 0.8 μg per ml and the “ANTISPASMODIC ACTIVITY HIST. (dose causing complete spasm inhibition)” value [3] was 0.017 μg per ml. The “ANTIHYPERTENSIVE ACTIVITY” value [4] was “+++ (reduction higher than 20 mm Hg)”.
In the case of `CC(NC1CCCCCCC1)C(O)c1ccc2c(c1)CCS2` (stereo not drawn) [No 28], the “VASODILATOR ACTIVITY” value (femoral artery) is reported as “+”, the “ANTISPASMODIC ACTIVITY ACHOL (dose causing complete spasm inhibition)” value [1] is reported as 1.7 μg per ml and the LD50 [5] is reported as 580 mg/kg. The “ANTISPASMODIC ACTIVITY BaCl2 (dose causing complete spasm inhibition)” value [2] was 1.7 μg per ml and the “ANTISPASMODIC ACTIVITY HIST. (dose causing complete spasm inhibition)” value [3] was 0.8 μg per ml.
